System: Triglycerid- und Cholesteringehaltes im Blut
Experiment: Reduction of blood triglyceride and cholesterol content after 10 days of daily peroral treatment, versus untreated controls
Format: in vivo
Conditions: Ratten, 10 Tage, vs. Blindversuche
Source text: Diese Wirkungen wurden gegenüber der in der Therapie der Hyperlipidämie (übermäßiger Lipidgehalt im Blut) und Hypercholesterinämie (übermäßiger Cholesteringehalt im Blut) verbreitet angewandten und anerkannt gut wirksamen bekannten Vergleichssubstanz 2-(4'-Chlorphenoxy)-2-me- thylpropionsäure [Clofibrat] bestimmt.
Es wurden vorherbestimmte tägliche Dosen einer erfin-dungsgemäßen Verbindung Laboratoriumstieren (üblicherweise in Gruppen von je 6 Tiere unterteilten Ratten) peroral verabreicht, während die Vergleichssubstanz 2-(4'-Chlor- phenoxy)-2-methylpropionsäure [Clofibrat] in einser Dosis von 130 mg/kg/Tag ebenfalls peroral verabreicht wurde. Die Behandlung wurde 10 Tage fortgesetzt, dann wurden die Tiere geopfert und ihr Blut wurde gesammelt und der Bestimmung seines Triglycerid- und Cholesteringehaltes unterzogen. Die erhaltenen Ergebnisse, ausgedrückt als prozentuale Verminderung des Triglycerid- und Cholesteringehaltes im Blut (prozentuale Hemmung der Bildung des Triglycerid- und Cholesteringehaltes im Blut) gegenüber den Blindversuchen (das heißt den Ratten, welchen weder eine erfindungsgemäße Verbindung noch die Vergleichssubstanz verabreicht wurde), sind in der folgenden Tabelle zusammengestellt.

With `CCOC(=O)C(C)(C)Oc1ccc(-c2ccc(F)cc2F)cc1` [Beispiel 2, 2-(2",4"-Difluordiphenyl-4'-yloxy)-2--methylpropionsäureäthylester] the “Verminderung des Cholesteringehaltes in %” value (peroral, 35 mg/kg/Tag) was 23%, the “Verminderung des Triglyceridgehaltes in %” value (peroral, 35 mg/kg/Tag) was 36% and the “Verminderung des Cholesteringehaltes in %” value (peroral, 50 mg/kg/Tag) was 30%. For the same compound, the “Verminderung des Triglyceridgehaltes in %” value (peroral, 50 mg/kg/Tag) was 29%, the “Verminderung des Cholesteringehaltes in %” value (peroral, 2,5 mg/kg/Tag) was 11% and the “Verminderung des Triglyceridgehaltes in %” value (peroral, 2,5 mg/kg/Tag) was 22%.

From patent publication EP0033980A1, “Derivatives of 2-methylpropionic acid, process for their preparation and pharmaceutical compositions containing them” (SCHIAPPARELLI FARMACEUTICI S.p.A., priority 1980, dated 1981)
